From PubChem BioAssay (NCI)
Where “and” joins values, the source holds several entries; their conditions need not be identical. Equal values may be shown once.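 Method: 48-hour compound exposure of cells in 96-well plates, five concentrations, linear interpolation of endpoints. At the TGI there is no net growth.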

tested on: HT29 colon; assay: inhibition of tumour cell growth, NCI panel, 48 h

Row | SMILES | TGI
1 | CC12CCC3C(CCC4CC(OC(=O)Cc5ccc(N(CCCl)CCCl)cc5)CCC43C)C1CCC(=O)N2 (centres undefined) | 30.2 µM
2 | CCN(CC)CCCNC(=O)c1ccc([N+](=O)[O-])cc1O | > 100 µM
3 | CN(Cc1ccccc1)c1cc(=O)n(C)c(=O)[nH]1 | > 100 µM
4 | COc1cc2c(cc1OC)[C@H]1CN3CCC[C@H]3C=C1c1ccc(OC)c(O)c1-2 | 0.0218 µM and 0.0484 µM
5 | Cc1cn([C@@H]2C[C@H](CO)[C@@H](O)C2)c(=O)[nH]c1=O | > 100 µM
6 | C=Cc1ccc(C)[n+](C[Si](C)(C)O[Si](C)(C)C[n+]2cc(C=C)ccc2C)c1 | > 100 µM
7 | Oc1[nH]c2ccc(Br)cc2c1N=NC(=S)Nc1ccc(F)cc1 | 28 µM
8 | O=c1[nH]cnc(NC2C=C(CO)C(O)C2O)c1[N+](=O)[O-] (centres undefined) | > 100 µM
9 | CCOC(=O)C1(C(=O)OCC)COS(=O)OC1 | > 100 µM
10 | O=C(NC(COC(=O)C(Cc1ccccc1)NC(=O)c1ccccc1)Cc1ccccc1)c1ccccc1 (centres undefined) | > 50 µM
11 | CC(=O)OCC1OC(n2cc(I)c(=O)[nH]c2=O)C(OC(C)=O)C(OC(C)=O)C1OC(C)=O (centres undefined) | > 100 µM
12 | CC(O)CCCOC(c1ccccc1)(c1ccccc1)c1ccccc1 (centres undefined) | 26.2 µM
13 | Cc1ccc([N+](=O)[O-])cc1N=NC(=O)NNc1cc([N+](=O)[O-])ccc1C | 45 µM
14 | O=C1NCCS(=O)(=O)N[C@@H](CC2=CC=CCC2)C(=O)N2CCCC12 (some centres undefined) | > 100 µM
15 | CC(C)=CCC/C(C)=C/COC(C)(C)C1=CCC(C)CC1 (centres undefined) (tested in a mixture with another compound) | > 100 µM
16 | O=[N+]([O-])c1ccc(/C=C/c2cc(-c3ccccc3)nc3ccc4ccccc4c23)cc1 | > 100 µM
17 | Cc1cc(-c2nc3ccccc3s2)ccc1NC(=O)[C@@H](N)CCCCN | 16.9 µM
18 | CCCCn1cnc2c(c(CC#N)nn2-c2ccccc2)c1=N | > 100 µM
19 | COc1ccc(-c2oc(/C=N/NC(N)=S)c([N+](=O)[O-])c2-c2ccc(OC)c(OC)c2)cc1OC | 51.7 µM
20 | CCN1CCCC(NCc2c3ccccc3c(CNC3CCCN(CC)C3)c3ccccc23)C1 (centres undefined) | > 37.5 µM
21 | COc1c(O)c2c3c(c(C)cc(O)c3c1O)C(=O)C(O)(C(C)(C)C(C)=O)C2=O (centres undefined) | > 100 µM
22 | Nc1nc(N)c(N=O)c(Nc2ccc(Br)cc2)n1 | 52.3 µM
23 | O=C(CNc1c(Cl)cccc1Cl)NC1C=Cc2ccc(S(=O)(=O)Nc3c(Cl)cccc3Cl)cc2C1=O (centres undefined) | > 100 µM
24 | C[C@]12CC[C@@H]3c4ccc(O)cc4CC[C@H]3[C@@H]1C/C(=C\c1ccncc1)[C@@H]2O | > 100 µM
25 | S=C(/N=c1\sc(Nc2ccc(Cl)cc2)nc2sc3c(c12)CCN(N1CCc2c(sc4nc(Nc5ccc(Cl)cc5)s/c(=N\C(=S)Nc5ccc(Cl)cc5)c24)C1)C3)Nc1ccc(Cl)cc1 | 36.1 µM
26 | O=C(Oc1cc(=O)c(OC(=O)c2ccccc2)co1)c1ccccc1 | > 100 µM
27 | CCC1=CC2CN3Cn4c(c(COCc5c6n(c7ccccc57)CN5CC7C=C(CC)C5C6(C(=O)OC)C7)c5ccccc54)C(C(=O)OC)(C2)C13 | > 100 µM
28 | O=C(Cc1ccccc1)NN1C(=O)/C(=C\c2ccccc2)SC1=Nc1ccccc1 | > 100 µM
29 | COc1ccc(CC2c3c(cc(OC)c(OC)c3OC)CCN2C)cc1OC (centres undefined) | > 100 µM

tested on: EKVX NSCLC; assay: inhibition of tumour cell growth, NCI panel, 48 h

Row | SMILES | TGI [µM]
30 | Cn1ccnc1C(O)(c1nccn1C)c1nccn1C | > 100
31 | CC12CCC3C(CCC4CC(OC(=O)Cc5ccc(N(CCCl)CCCl)cc5)CCC43C)C1CCC(=O)N2 (centres undefined) | 30.5
32 | CCN(CC)CCCNC(=O)c1ccc([N+](=O)[O-])cc1O | > 100
33 | Cc1cn([C@@H]2C[C@H](CO)[C@@H](O)C2)c(=O)[nH]c1=O | > 100
34 | C=Cc1ccc(C)[n+](C[Si](C)(C)O[Si](C)(C)C[n+]2cc(C=C)ccc2C)c1 | > 100
35 | O=c1[nH]cnc(NC2C=C(CO)C(O)C2O)c1[N+](=O)[O-] (centres undefined) | > 100
36 | O=C(NC(COC(=O)C(Cc1ccccc1)NC(=O)c1ccccc1)Cc1ccccc1)c1ccccc1 (centres undefined) | > 50
37 | CC(=O)OCC1OC(n2cc(I)c(=O)[nH]c2=O)C(OC(C)=O)C(OC(C)=O)C1OC(C)=O (centres undefined) | > 100
38 | CC(O)CCCOC(c1ccccc1)(c1ccccc1)c1ccccc1 (centres undefined) | 28.1
39 | CC(C(=O)N1C(=O)N(C(=O)C(C)C(O)c2ccccc2)C2CCCCC21)C(O)c1ccccc1 (centres undefined) | > 100
40 | O=C1NCCS(=O)(=O)N[C@@H](CC2=CC=CCC2)C(=O)N2CCCC12 (some centres undefined) | > 100
41 | CC(C)=CCC/C(C)=C/COC(C)(C)C1=CCC(C)CC1 (centres undefined) (tested in a mixture with another compound) | > 100
42 | O=[N+]([O-])c1ccc(/C=C/c2cc(-c3ccccc3)nc3ccc4ccccc4c23)cc1 | > 100
43 | Cc1cc(-c2nc3ccccc3s2)ccc1NC(=O)[C@@H](N)CCCCN | 25.1
44 | CCCCn1cnc2c(c(CC#N)nn2-c2ccccc2)c1=N | > 100
45 | COc1ccc(-c2oc(/C=N/NC(N)=S)c([N+](=O)[O-])c2-c2ccc(OC)c(OC)c2)cc1OC | 80.4
46 | CCN1CCCC(NCc2c3ccccc3c(CNC3CCCN(CC)C3)c3ccccc23)C1 (centres undefined) | 35.9
47 | Nc1nc(N)c(N=O)c(Nc2ccc(Br)cc2)n1 | > 100
48 | O=C(CNc1c(Cl)cccc1Cl)NC1C=Cc2ccc(S(=O)(=O)Nc3c(Cl)cccc3Cl)cc2C1=O (centres undefined) | > 100
49 | C[C@]12CC[C@@H]3c4ccc(O)cc4CC[C@H]3[C@@H]1C/C(=C\c1ccncc1)[C@@H]2O | > 100
50 | S=C(/N=c1\sc(Nc2ccc(Cl)cc2)nc2sc3c(c12)CCN(N1CCc2c(sc4nc(Nc5ccc(Cl)cc5)s/c(=N\C(=S)Nc5ccc(Cl)cc5)c24)C1)C3)Nc1ccc(Cl)cc1 | > 100
51 | CCC1=CC2CN3Cn4c(c(COCc5c6n(c7ccccc57)CN5CC7C=C(CC)C5C6(C(=O)OC)C7)c5ccccc54)C(C(=O)OC)(C2)C13 | > 100
52 | O=C(Cc1ccccc1)NN1C(=O)/C(=C\c2ccccc2)SC1=Nc1ccccc1 | > 100
53 | COc1ccc(CC2c3c(cc(OC)c(OC)c3OC)CCN2C)cc1OC (centres undefined) | > 100

tested on: TK-10 renal; assay: inhibition of tumour cell growth, NCI panel, 48 h

Row | SMILES | TGI [µM]
54 | Cn1ccnc1C(O)(c1nccn1C)c1nccn1C | > 100
